Values of other authors in US6887894B2, “Use of lipoic acid for improving the bioavailability of mineral salts” (BASF Aktiengesellschaft, priority 2000, dated 2005).

Experiments:
[1] = in vivo; cited from earlier work
[2] = in vivo; cited from earlier work; remark: listed apart in the source
[3] = in vivo; cited from earlier work; remark: listed apart in the source
[4] = growing rats, suboptimal Zn supply, 1% citric acid added to phytic-acid-rich corn-germ-based diets; cited from earlier work
[5] = pigs; cited from earlier work

O=C1O[C@H]([C@@H](O)CO)C(O)=C1O [Ascorbic acid]
effect on bioavailability of inorganic iron [1]: increases
effect on bioavailability of dietary zinc [2]: does not change

[Cl-].[Cl-].[Zn+2] [ZnCl2]
bioavailability of Zn2+ from organic or inorganic sources [3]: roughly comparable

O=C(O)CC(O)(CC(=O)O)C(=O)O [citric acid]
Zn status (plasma Zn concentration, alkaline phosphatase activity, metallothioneine concentration in the jejunum) [4]: moderate improvement
effect on Zn utilization [5]: positive effects
